Earlier results, collected in paper PMC8583936, “Machine Learning Assisted Approach for Finding Novel High Activity Agonists of Human Ectopic Olfactory Receptors” (International Journal of Molecular Sciences, 2021).
Where a name gives a salt, the structure may show the parent alone. Read-outs that look alike come from different tables or passages of the source.

What was measured:
[1] = target: T1, OR1A1 (Homo sapiens, UniProt Q9P1Q5); details: cited from earlier work
T1 sequence (Q9P1Q5 1-309): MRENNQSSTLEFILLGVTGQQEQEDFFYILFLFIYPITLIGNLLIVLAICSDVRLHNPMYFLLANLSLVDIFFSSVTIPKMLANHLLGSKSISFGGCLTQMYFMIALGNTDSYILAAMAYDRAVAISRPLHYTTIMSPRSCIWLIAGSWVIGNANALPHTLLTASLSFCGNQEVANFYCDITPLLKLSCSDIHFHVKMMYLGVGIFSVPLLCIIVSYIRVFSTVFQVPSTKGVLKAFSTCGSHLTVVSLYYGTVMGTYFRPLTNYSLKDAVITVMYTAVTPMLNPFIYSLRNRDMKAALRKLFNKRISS

[2] = target: T2, OR2W1 (Homo sapiens, UniProt Q9Y3N9); details: cited from earlier work
T2 sequence (Q9Y3N9 1-320): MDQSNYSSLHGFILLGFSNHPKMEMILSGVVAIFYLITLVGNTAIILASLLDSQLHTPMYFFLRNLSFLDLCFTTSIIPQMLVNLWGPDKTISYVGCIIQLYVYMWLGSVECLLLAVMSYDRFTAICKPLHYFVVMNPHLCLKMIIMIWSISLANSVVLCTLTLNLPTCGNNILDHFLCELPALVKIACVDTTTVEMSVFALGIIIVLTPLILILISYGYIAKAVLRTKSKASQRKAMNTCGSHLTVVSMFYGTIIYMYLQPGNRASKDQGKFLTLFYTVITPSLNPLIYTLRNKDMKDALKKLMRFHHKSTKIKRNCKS

[3] = Table S1, ref Supplement references [1]-[9] as printed after each odorant name
[4] = Table S2, ref Supplement references [2]-[12] as printed after each odorant name

| Compound | Class (agonist / non-agonist / conflicting info.) for OR1A1 [1, 3] | Class (agonist / non-agonist / antagonist / conflicting info.) for OR2W1 [2, 4] | Class (agonist / non-agonist / antagonist / conflicting info.) for OR2W1 [2] | Class (agonist / non-agonist / conflicting info.) for OR1A1 [1] |
| --- | --- | --- | --- | --- |
| CCCCCCC/C=C/C=O [2-decenal, (2e)-] | Non-agonist | Non-agonist |  |  |
| CCCCCC/C=C/C=O [2-enonenal] | Non-agonist | Non-agonist |  |  |
| CCOc1nccs1 [2-ethoxythiazole] | Non-agonist | Agonist |  |  |
| CCC1(O)C2(C)CCC(C2)C1(C)C (stereo not shown) [2-ethylfenchol] | Conflicting info. |  | Conflicting info. |  |
| CCCCCC(C)O (stereo not shown) [2-heptanol] | Non-agonist | Agonist |  |  |
| CCCCCC(C)=O [2-heptanone] | Conflicting info. | Conflicting info. |  |  |
| CCCCC(C)=O [2-hexanone] |  |  | Agonist | Non-agonist |
| CCC/C=C/C=O [2-hexenal, (2e)-] | Non-agonist | Non-agonist |  |  |
| COc1nccnc1CC(C)C [2-isobutyl-3-methoxypyrazine] | Non-agonist | Non-agonist |  |  |
| COc1nccnc1C(C)C [2-isopropyl-3-methoxypyrazine] | Non-agonist | Non-agonist |  |  |
| COc1cc(C)ccc1O [2-methoxy-4-methylphenol] | Non-agonist | Non-agonist |  |  |
| CCCc1ccc(O)c(OC)c1 [2-methoxy-4-propylphenol] |  |  | Non-agonist | Non-agonist |
| CCC(C)CO (stereo not shown) [2-methyl-1-butanol] |  |  | Non-agonist | Non-agonist |
| CCC(C)C=O (stereo not shown) [2-methylbutyraldehyde] | Non-agonist | Non-agonist |  |  |
| Cc1ccccc1O [2-methylphenol] |  |  | Non-agonist | Non-agonist |
| CCCCCCCC(C)=O [2-nonanone] | Conflicting info. | Agonist |  |  |
| CCCCCC/C=C\C=O [2-nonenal, (2z)-] | Non-agonist | Non-agonist |  |  |
| CCCCCCC(C)=O [2-octanone] | Agonist | Agonist |  |  |
| CCCCC/C=C\C=O [2-octenal, (2z)-] | Non-agonist | Non-agonist |  |  |
| CCCC(C)=O [2-pentanone] | Non-agonist | Non-agonist |  |  |
| CCCCCc1ccccn1 [2-pentylpyridine] | Agonist | Agonist |  |  |
| SCCc1ccccc1 [2-phenylethanethiol] | Agonist | Agonist |  |  |
| OCCc1ccccc1 [2-phenylethanol] | Non-agonist | Non-agonist |  |  |
| CCC(=O)C1=NCCC1 [2-propionylpyrroline] | Non-agonist | Non-agonist |  |  |
| CCCCCCCCC=CC=O [2-undecenal] | Non-agonist | Non-agonist |  |  |
| CCC(=O)C(=O)CC [3,4-hexanedione] |  |  | Agonist | Non-agonist |
| CC/C=C\CCOC(C)=O [3-Hexenyl acetate, (3Z)-] | Non-agonist | Non-agonist |  |  |

| Compound | Class (agonist / non-agonist / conflicting info.) for OR1A1 [1, 3] | Class (agonist / non-agonist / antagonist / conflicting info.) for OR2W1 [2, 4] | Class (agonist / non-agonist / antagonist / conflicting info.) for OR2W1 [2] | Class (agonist / non-agonist / conflicting info.) for OR1A1 [1] |
| --- | --- | --- | --- | --- |
| CCC(S)C(C)=O (stereo not shown) [3-Mercapto-2-pentanone] | Non-agonist | Non-agonist |  |  |
| CC(C)(S)CCOC=O [3-Mercapto-3-methylbutyl formate] | Non-agonist | Non-agonist |  |  |
| CCCC(S)CCOC(C)=O (stereo not shown) [3-Mercaptohexyl acetate] | Agonist | Agonist |  |  |
| CC(C)CCO [3-Methyl-1-butanol] | Non-agonist | Non-agonist |  |  |
| Cc1c[nH]c2ccccc12 [3-Methyl-1H-indole] | Non-agonist | Non-agonist |  |  |
| CCCCCC(=O)C(C)C(C)=O (stereo not shown) [3-Methyl-2,4-nonanedione] | Agonist | Non-agonist |  |  |
| CCCC(=O)C(C)CC (stereo not shown) [3-Methylheptan-4-one] | Non-agonist | Non-agonist |  |  |
| O=C(O)CCc1ccccc1 [3-Phenyl propionic acid] |  |  | Non-agonist | Non-agonist |
| CCCC(S)CCO (stereo not shown) [3-Sulfanylhexan-1-ol] | Non-agonist | Non-agonist |  |  |
| CCc1cccc(O)c1 [3-ethylphenol] | Non-agonist | Non-agonist |  |  |
| CCCCC(=O)CC [3-heptanone] | Agonist | Agonist |  |  |
| CC/C=C\CC=O [3-hexenal, (3z)-] | Non-agonist | Non-agonist |  |  |
| Cc1cccc(O)c1 [3-methylphenol] |  |  | Non-agonist | Non-agonist |
| CCCCCC(=O)CC [3-octanone] | Agonist | Agonist |  |  |
| CCC(=O)OCCCc1ccccc1 [3-phenyl propyl propionate] |  |  | Agonist | Agonist |
| CCC(C)c1nccnc1OC (stereo not shown) [3-secbutyl-2-methoxypyrazine] | Non-agonist | Non-agonist |  |  |
| CCCCC(CC)CCC(=O)O (stereo not shown) [4-Ethyloctanoic acid] | Non-agonist | Non-agonist |  |  |
| CC(=O)CC(C)(C)S [4-Mercapto-4-methyl-2-pentanone] | Non-agonist | Non-agonist |  |  |
| COC1=C(C)OC(C)C1=O (stereo not shown) [4-Methoxy-2,5-dimethyl-3(2H)-furanone] | Non-agonist | Non-agonist |  |  |
| COCCC(C)(C)S [4-Methoxy-2-methyl-2-butanethiol] | Non-agonist | Non-agonist |  |  |
| CC(=O)c1ccc(C)cc1 [4-Methyl acetophenone] | Non-agonist | Agonist |  |  |
| CCCCC(C)CCC(=O)O (stereo not shown) [4-Methyloctanoic acid] | Non-agonist | Non-agonist |  |  |
| O=C1CCOc2ccccc21 [4-chromanone] | Agonist | Agonist |  |  |
| C=Cc1ccc(O)cc1 [4-ethenylphenol] | Non-agonist | Non-agonist |  |  |
| CCc1ccc(O)cc1 [4-ethylphenol] | Non-agonist | Non-agonist |  |  |
| CC/C=C\CCC=O [4-heptenal, (4z)-] | Non-agonist | Non-agonist |  |  |
